Experimental data reported in the supplement of paper PMC4977894.
± gives the standard deviation of the averaged measurements.

Experiments:
[1] = test system: Homo sapiens (human subject panel, olfactory perception); experiment: perceived odor familiarity rating (rating 0-100); higher = more familiar
In short: (§1)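 Values for familiarity, intensity and pleasantness are averaged over subjects. The panel of 55 healthy people aged 18–50 excluded the six lowest performers and rated each paraffin-oil dilution of a molecule at high and low concentrations. Ratings were made only for stimuli the subject reported smelling, on a slider converted to a 0–100 scale.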

[2] = test system: Homo sapiens (human subject panel, olfactory perception); experiment: perceived odor pleasantness rating (rating 0-100); higher = more pleasant
In short: as §1

[3] = test system: Homo sapiens (human subject panel, olfactory perception); experiment: perceived odor intensity rating (rating 0-100); higher = stronger perceived smell
In short: as §1

[4] = odor dilution in paraffin oil: 1/10
[5] = odor dilution in paraffin oil: 1/1,000
[6] = odor dilution in paraffin oil: 1/100,000
[7] = odor dilution in paraffin oil: 1/10,000,000

Row | SMILES | perceived odor familiarity rating [1, 4] | perceived odor familiarity rating [1, 5] | perceived odor pleasantness rating [2, 4] | perceived odor pleasantness rating [2, 5] | perceived odor intensity rating [3, 4] | perceived odor intensity rating [3, 5] | perceived odor familiarity rating [1, 6] | perceived odor pleasantness rating [2, 6] | perceived odor intensity rating [3, 6] | perceived odor familiarity rating [1, 7] | perceived odor pleasantness rating [2, 7] | perceived odor intensity rating [3, 7]
1 | CC(=O)OC(C)(C)Cc1ccccc1 [alpha,alpha-Dimethylphenethyl acetate] | 48.8 ± 32 | 40.3 ± 30 | 51.9 ± 31 | 52.5 ± 21 | 79 ± 17 | 36.6 ± 30 | – | – | – | – | – | –
2 | CCCCCC(C=O)=Cc1ccccc1 [alpha-Amylcinnamaldehyde] | 45.1 ± 31 | 36 ± 27 | 43.5 ± 27 | 33.2 ± 26 | 65.5 ± 29 | 54.4 ± 32 | – | – | – | – | – | –
3 | CC(O)c1ccccc1 (stereo not drawn) [alpha-Methylbenzyl alcohol] | – | 45 ± 32 | – | 50.4 ± 26 | – | 48.4 ± 30 | 30.4 ± 30 | 44.5 ± 23 | 15.4 ± 16 | – | – | –
4 | CC1=CCC2CC1C2(C)C (stereo not drawn) [alpha-pinene] | – | 46.6 ± 31 | – | 45.6 ± 26 | – | 61.4 ± 26 | 41.4 ± 29 | 54.4 ± 21 | 27.9 ± 30 | – | – | –
5 | COc1ccccc1 [anisole] | – | 45 ± 34 | – | 29.3 ± 26 | – | 75.3 ± 24 | 35.4 ± 33 | 50.2 ± 26 | 30.9 ± 30 | – | – | –
6 | O=Cc1ccccc1 [benzaldehyde] | – | 61.3 ± 27 | – | 61.5 ± 29 | – | 77.4 ± 17 | 45.3 ± 34 | 64.6 ± 22 | 30.6 ± 29 | – | – | –
7 | O=C(c1ccccc1)c1ccccc1 [benzophenone] | 38.6 ± 31 | 33.2 ± 28 | 36.2 ± 24 | 57.5 ± 25 | 67.7 ± 27 | 24.9 ± 29 | – | – | – | – | – | –
8 | CC(=O)OCc1ccccc1 [benzyl acetate] | – | 52.3 ± 33 | – | 60.4 ± 25 | – | 65.8 ± 29 | 42.3 ± 27 | 54.7 ± 20 | 36.3 ± 28 | – | – | –
9 | OCc1ccccc1 [benzyl alcohol] | 55 ± 29 | 40.2 ± 25 | 46.7 ± 25 | 52.4 ± 20 | 74.2 ± 18 | 45.4 ± 26 | – | – | – | – | – | –
10 | NCCC(=O)O [beta-Alanine] | 35.9 ± 30 | 40.9 ± 30 | 50.1 ± 22 | 50.2 ± 26 | 38.4 ± 28 | 33.9 ± 25 | – | – | – | – | – | –
11 | CC(=O)/C=C/C1=C(C)CCCC1(C)C [beta-Ionone] | – | 52.4 ± 30 | – | 49.2 ± 27 | – | 69.7 ± 25 | 49.8 ± 31 | 62.6 ± 25 | 50.6 ± 32 | – | – | –
12 | CCCCO [butanol] | – | – | – | – | – | – | 35.8 ± 32 | 42.7 ± 25 | 19.8 ± 23 | 27 ± 30 | 49.7 ± 26 | 10.7 ± 19
13 | CCCCOC(C)=O [butyl acetate] | – | 67.5 ± 29 | – | 55.6 ± 27 | – | 76.5 ± 18 | 43.7 ± 31 | 61.1 ± 19 | 31.6 ± 24 | – | – | –
14 | CCCCOC(=O)CCC [butyl butyrate] | – | 49.7 ± 28 | – | 38.1 ± 26 | – | 57.9 ± 27 | 41.3 ± 30 | 48 ± 24 | 25.5 ± 29 | – | – | –
15 | CCCC=O [butyraldehyde] | – | 51.1 ± 29 | – | 17.7 ± 18 | – | 83.4 ± 15 | 41.8 ± 31 | 32.2 ± 21 | 51.9 ± 28 | – | – | –
16 | CCCC(=O)O [butyric acid] | – | 53.1 ± 31 | – | 21.1 ± 27 | – | 86.8 ± 13 | 50.2 ± 34 | 16 ± 18 | 76.8 ± 23 | – | – | –
17 | CCCCCC(=O)O [caproic acid] | – | 46.7 ± 33 | – | 14.3 ± 19 | – | 84.3 ± 15 | 45.1 ± 29 | 19.4 ± 19 | 66.5 ± 28 | – | – | –
18 | C=C(C)C1CC=C(C)C(OC(C)=O)C1 (stereo unspecified) [carvyl acetate] | – | 43.5 ± 32 | – | 27.2 ± 22 | – | 75 ± 25 | 37.2 ± 30 | 44.1 ± 23 | 38.6 ± 33 | – | – | –

Row | SMILES | perceived odor familiarity rating [1, 4] | perceived odor familiarity rating [1, 5] | perceived odor pleasantness rating [2, 4] | perceived odor pleasantness rating [2, 5] | perceived odor intensity rating [3, 4] | perceived odor intensity rating [3, 5] | perceived odor familiarity rating [1, 6] | perceived odor pleasantness rating [2, 6] | perceived odor intensity rating [3, 6] | perceived odor familiarity rating [1, 7] | perceived odor pleasantness rating [2, 7] | perceived odor intensity rating [3, 7]
19 | OC/C=C/c1ccccc1 [cinnamyl alcohol] | – | 52.6 ± 34 | – | 47.4 ± 31 | – | 75.8 ± 21 | 53.7 ± 33 | 42.9 ± 28 | 60.3 ± 28 | – | – | –
20 | CCCCCC/C=C\CO [cis-2-Nonen-1-ol] | – | 46.3 ± 30 | – | 34.7 ± 25 | – | 77.9 ± 21 | 40.8 ± 30 | 36 ± 21 | 54.7 ± 32 | – | – | –
21 | CC/C=C\CCO [cis-3-Hexen-1-ol] | – | 69.6 ± 30 | – | 51 ± 31 | – | 81.9 ± 16 | 60.5 ± 30 | 60 ± 22 | 39.7 ± 28 | – | – | –
22 | CC/C=C\CCOC(=O)c1ccccc1 [cis-3-Hexenyl benzoate] | – | 36.3 ± 28 | – | 40.8 ± 19 | – | 40.4 ± 31 | 34 ± 23 | 51.2 ± 13 | 28.1 ± 26 | – | – | –
23 | CC/C=C\CCOC(=O)C(C)C [cis-3-Hexenyl isobutyrate] | – | 55.4 ± 31 | – | 47.1 ± 29 | – | 73.3 ± 25 | 40.1 ± 30 | 40.8 ± 22 | 30 ± 28 | – | – | –
24 | CC/C=C\CCOC(=O)C(C)O (stereo not drawn) [cis-3-Hexenyl lactate] | – | 57.1 ± 31 | – | 51.7 ± 26 | – | 67.2 ± 29 | 38.6 ± 30 | 46.7 ± 22 | 30.3 ± 28 | – | – | –
25 | CC/C=C\CCOC(=O)Cc1ccccc1 [cis-3-Hexenyl phenylacetate] | – | 41.3 ± 30 | – | 40.1 ± 26 | – | 51 ± 31 | 37.5 ± 32 | 52.2 ± 25 | 14.4 ± 23 | – | – | –
26 | CC/C=C\CCOC(=O)CC [cis-3-Hexenyl propionate] | – | 60.9 ± 30 | – | 64.4 ± 28 | – | 61.7 ± 26 | 30.7 ± 28 | 52 ± 20 | 20.4 ± 23 | – | – | –
27 | CC/C=C\CCOC(=O)c1ccccc1O [cis-3-Hexenyl salicylate] | – | 40.2 ± 26 | – | 48.1 ± 26 | – | 49.2 ± 30 | 36.8 ± 33 | 49.8 ± 24 | 9.75 ± 16 | – | – | –
28 | C/C=C(\C)C(=O)OCC/C=C\CC [cis-3-Hexenyl tiglate] | 53.4 ± 31 | 47.9 ± 30 | 47.2 ± 31 | 47.6 ± 28 | 79.2 ± 18 | 45.7 ± 30 | – | – | – | – | – | –
29 | CC/C=C\CCOC(C)=O [cis-3-hexenyl acetate] | – | 73.6 ± 28 | – | 63.8 ± 30 | – | 76.7 ± 22 | 64.7 ± 30 | 70.9 ± 20 | 41 ± 31 | – | – | –
30 | CCCCC/C=C\CCCO [cis-4-Decen-1-ol] | – | 49.8 ± 29 | – | 49.2 ± 25 | – | 65.4 ± 26 | 40.3 ± 32 | 53.6 ± 27 | 29.2 ± 32 | – | – | –
31 | CC/C=C\CCC=O [cis-4-Heptenal] | – | – | – | – | – | – | 46.1 ± 33 | 28.7 ± 25 | 66.8 ± 29 | 45.2 ± 31 | 32.5 ± 26 | 56.2 ± 31
32 | CC/C=C\CCCCO [cis-5-Octen-1-ol] | – | 69.2 ± 27 | – | 59.3 ± 28 | – | 75.7 ± 20 | 59.5 ± 29 | 66.6 ± 21 | 40.6 ± 30 | – | – | –
33 | O=c1ccc2ccccc2o1 [coumarin] | 63.8 ± 30 | 55.9 ± 31 | 67.2 ± 26 | 65.1 ± 25 | 77.5 ± 16 | 62.8 ± 26 | – | – | – | – | – | –
34 | CC(C)c1ccc(C=O)cc1 [cuminaldehyde] | – | 50.9 ± 35 | – | 51.2 ± 28 | – | 59.1 ± 31 | 31.3 ± 26 | 58.1 ± 26 | 16.2 ± 20 | – | – | –
35 | C=C(C)[C@H]1CC=C(C)CC1 [d-Limonene] | – | 43.6 ± 28 | – | 52.6 ± 21 | – | 29.6 ± 26 | 41.1 ± 28 | 30.9 ± 25 | 45.4 ± 36 | – | – | –
36 | CCCCCCCCCC=O [decanal] | 51.9 ± 35 | 44 ± 30 | 28.7 ± 23 | 33.3 ± 23 | 78.9 ± 20 | 59.9 ± 25 | – | – | – | – | – | –
